In data set [1] the test system is PC-3 (prostate adenocarcinoma). Description: MTT anti-proliferative assay, PC-3. In kind it is cell-based. Particulars: Homo sapiens; PC-3, MCF-7 excluded; PC-3, MTT, 48 h, 0.5–50 μg/mL, mean ± SD; read-out: Cytotoxic activity IC50, PC-3. As to the method:
(§1) Anti-proliferative activity of compounds (0.5–50 μg/mL) against three human cancer cell lines were carried out by MTT test as specified in our previous study (Sen et al. [2015]). Compounds were tested for their cytotoxic activities. Cell viability and cytotoxic activity profile of the compounds were analyzed using the MTT assay (Mosman 1983; Woerdenbag et al. [1986]; Beekman et al. [1997]). MTT is cleaved to formazan by the ‘succinate-tetrazolium reductase’ system (EC 1.3.99.1) which belongs to the mitochondrial respiratory chain and is active only in viable cells. Different cell lines were used for the determination of cytotoxic activity [HeLa; (ATCC®, CCL- 2™), MCF-7 (ATCC®, HTB-22™), PC-3; (ATCC®, CRL-1435™)]. The cells were cultured with DMEM (Dulbecco’s Modified Eagle’s Medium) supplemented with 10% FBS (Foetal bovine serum), 1% L-glutamine and antibiotic solutions (penicillin–streptomycin–amphotericin).
(§2) In vitro cytotoxicity test was done by the method of modified Woerdenbag et al. ([1986]). The MTT metabolic assay was carried out with cells seeded at a density of 1 × 10^4 cells/well in 96-well flat-bottom cell culture plates with 100 μL of opti-MEM and 24–48 h incubation at 37 °C, 5% CO2. The following day, media was aspirated and the compounds were dissolved in DMSO and diluted with medium before they were added to the cell cultures at different concentrations. Cells were incubated for 48 h at 37 °C, 5% CO2. After the incubation period, 10 μL of the MTT labelling reagent [final concentration […] (Cell proliferation kit MTT, Roche, Germany)] was added to each well. The cultures were incubated for 4–12 h in a humidified atmosphere (e.g., 37 °C, 5% CO2) and 100 μL of the solubilization buffer was added into each well. The plate was allowed to stand overnight in the incubator in a humidified atmosphere (e.g., 37 °C, 5% CO2), the formazan precipitates were solubilized. Absorbance of the formazan product was measured spectrophotometrically at 550 and 690 nm.
Background: Tetrazolium dyes change colour on reduction, which living cells bring about.

In data set [2] the test system is MCF-7 cell lines. Details: method as in Bruno et al. [2005]; Csapi et al. [2010]. Particulars: ref Bruno et al. [2005], Csapi et al. [2010], cited from earlier work; for Activity on MCF-7 cell lines: same value converted.
A short description of data set [3]: MTT cytotoxicity assay, normal cell line L-929. Type of data set: cell-based. Particulars: L-929 mouse fibroblast cells (normal cell line), L-929 normal mouse fibroblast, 0.5–50 μg/mL, mean ± SD, read-out: Cytotoxic activity IC50, L-929. The protocol:
[Worded in the source for another cell line; this cell line is reported under the same test.] as §1, §2

The test system of data set [4] is human ductal carcinoma (BT-549) cells. Further details: method as in Erel et al. ([2011]). The conditions noted are these: ref Erel et al. ([2011]); cited from earlier work.
Data set [5] concerns MCF-7 (breast adenocarcinoma). Description: MTT anti-proliferative assay, MCF-7. Type of data set: cell-based. Particulars: Homo sapiens, MCF7; MCF-7, MTT, 48 h, 0.5–50 μg/mL, mean ± SD; read-out: Cytotoxic activity IC50, MCF-7. The protocol:
as §1, §2

In data set [6] the test system is Hela (cervix adenocarcinoma). Description: MTT anti-proliferative assay, Hela. In kind it is cell-based. The conditions noted are these: Homo sapiens, 48 h, 0.5–50 μg/mL, mean ± SD, read-out: Cytotoxic activity IC50, Hela. The protocol:
as §1, §2

Data set [7] relates to human malignant melanoma (SK-MEL) cells. Details: method as in Erel et al. ([2011]). Particulars: ref Erel et al. ([2011]); cited from earlier work.

Values after ≈ are worked out from the molar mass of the structure shown. Where two headings read alike, the source gives them in different places.

One may read the IC50 as the concentration needed to halve the response being measured.

For the molecule `C=C1C(=O)O[C@@H]2/C=C(\CO)CC/C=C(\C)C[C@H](OC(=O)C(=C)[C@@H](O)CO)[C@@H]12` [Cnicin], the IC50 in data set [1] is 31.5 ± 0.71 µg/mL (≈ 83.3 µM); in data set [2] (another study), 16.8 µM; in data set [2] (previous study), 4.2 µM; in data set [5] it was 3.25 ± 0.03 µg/mL (≈ 8.59 µM); in data set [6], above 50 µg/mL. In addition, the “Activity on MCF-7 cell lines” value in data set [2] (another study) was 6.37 µg/mL; in data set [2] (previous study), 1.59 µg/mL. In data set [3], the IC50 at 48 h is above 50 µg/mL. The “Cytotoxic effect, BT-549” value in data set [4] is given as “cytotoxic effect”. Also, in data set [7], the “Cytotoxic effect, SK-MEL” value is recorded as “cytotoxic effect”.
Turning to `CC1(C)CC[C@]2(C(=O)O)CC[C@]3(C)C(=CC[C@@H]4[C@@]5(C)CC[C@H](O)C(C)(C)[C@@H]5CC[C@]43C)[C@@H]2C1` [Oleanolic acid], the values for the IC50 in data set [1], in data set [5] and in data set [6] were 45.38 ± 0.42 µg/mL (≈ 99.4 µM), above 50 µg/mL and above 50 µg/mL, respectively. Also, the IC50 at 48 h in data set [3] is above 50 µg/mL.
Consider `COc1cc(-c2cc(=O)c3c(O)c(OC)c(O)cc3o2)ccc1O` [Jaceosidin], for which the IC50 in data set [1], in data set [5] and in data set [6] was above 50 µg/mL in each case. In addition, the IC50 at 48 h in data set [3] was above 50 µg/mL.
Consider `COc1ccc(-c2cc(=O)c3c(O)c(OC)c(OC)cc3o2)cc1OC` [3′-O-Methyl eupatorin], for which the 50% inhibitory concentration (IC50) in data set [1], in data set [5] and in data set [6] was above 50 µg/mL in each case. In data set [3], the IC50 at 48 h is above 50 µg/mL.
Consider `COc1ccc(-c2cc(=O)c3c(O)c(OC)c(OC)cc3o2)cc1O` [Eupatorin], for which the IC50 is 35.69 ± 0.3 µg/mL (≈ 104 µM) in data set [1], above 50 µg/mL in data set [5] and above 50 µg/mL in data set [6]. For the same molecule, the IC50 at 48 h in data set [3] is above 50 µg/mL.
`O=c1cc(-c2ccc(O)cc2)oc2cc(O)cc(O)c12` [Apigenin]: the IC50 is 44.13 ± 0.33 µg/mL (≈ 163 µM) in data set [1], above 50 µg/mL in data set [5] and above 50 µg/mL in data set [6]. In data set [3], the IC50 at 48 h was above 50 µg/mL.
For the molecule `COc1ccc(-c2cc(=O)c3c(O)c(OC)c(OC)cc3o2)cc1` [Salvigenin], the IC50 in data set [1], in data set [5] and in data set [6] was above 50 µg/mL throughout. The IC50 at 48 h in data set [3] is above 50 µg/mL.
On to `C=C1CC[C@]2(C)CC[C@]3(C)[C@H](CC[C@@H]4[C@@]5(C)CC[C@H](O)C(C)(C)[C@@H]5CC[C@]43C)[C@H]2[C@@H]1C` [Taraxasterol], for which the half-inhibitory concentration (IC50) in data set [1], in data set [5] and in data set [6] was above 50 µg/mL in each case. Further, the IC50 at 48 h in data set [3] is above 50 µg/mL.
On to `COc1cc2oc(-c3ccc(O)cc3)cc(=O)c2c(O)c1OC` [Cirsimaritin], for which the figures for the IC50 in data set [1], in data set [5] and in data set [6] were 4.3 ± 1.55 µg/mL (≈ 13.7 µM), above 50 µg/mL and above 50 µg/mL, respectively. Also, the IC50 at 48 h in data set [3] is above 50 µg/mL.
As for `C=C[C@]1(C)C[C@H](O)[C@H]2C(=C)C(=O)O[C@@H]2[C@H]1C(=C)CO` [Dehydromelitensin], the IC50 in data set [1] is 25 ± 0.44 µg/mL (≈ 94.6 µM); in data set [5] it was 28.9 ± 0.95 µg/mL (≈ 110 µM); in data set [6], above 50 µg/mL. Further, the IC50 at 48 h in data set [3] was above 50 µg/mL.
For `COc1ccc(-c2cc(=O)c3c(O)c(OC)c(O)cc3o2)cc1` [Pectolinarigenin], the values for the IC50 in data set [1], in data set [5] and in data set [6] were above 50 µg/mL, 35.5 ± 2.7 µg/mL (≈ 113 µM) and above 50 µg/mL, respectively. Besides, the IC50 at 48 h in data set [3] was above 50 µg/mL.

Values taken from PMC6130618, “Bioactivity-guided isolation of anti-proliferative compounds from endemic Centaurea kilaea” (Pharmaceutical Biology, 2016).
